# Measured values taken from US6369069B1 (Aventis Pharma Deutschland GmbH, priority 1998, dated 2002).
# System: Na^+-dependent Cl^−/HCO3^− exchanger (NCBE)
# Assay: Inhibition of the Na+-dependent Cl−/HCO3− exchanger (NCBE) in human endothelial cells (pHi recovery, BCECF fluorescence, FLIPR)
# Assay type: cell-based
# Conditions: 10 μM
# Description: Inhibition of the Na^+-dependent Cl^−/HCO3^− exchanger (NCBE) in human endothelial cells
# Human endothelial cells (ECV-304) were detached form culture flasks with the aid of trypsin/EDTA buffer (0.05/0.02% in phosphate buffer) and, after centrifugation (100 g, 5 min), taken up in a buffered saline solution (mmol/l: 115 NaCl, 20 NH4Cl, 5 KCl, 1 CaCl2, 1 MgSO4, 20 N-(2-hydroxyethyl)-piperazine-N[…]-2-ethanesulfonic acid (HEPES), 5 glucose and 1 g/l of bovine serum albumin; pH 7.4). This cell suspension was incubated at 37 °C. for 20 min with 5 μM BCECF acetoxymethyl ester. The cells were then washed and resuspended in a sodium- and bicarbonate-free buffer solution (mmol/l: 5 HEPES, 133.8 choline chloride, 4.7 KCl, 1.25 MgCl2, 0.97 K2HPO4, 0.23 KH2PO4, 5 glucose; pH 7.4).
# For the subsequent fluorescence measurement in the FLIPR (Fluorescent Imaging Plate Reader), 100 μl of this cell suspension in each case containing 20,000 cells were added by pipette per well of a 96-well microtiter plate and this microtiter plate was centrifuged (100 g, 5 min). In the FLIPR, 100 μl of buffer solution in each case were then removed from a further prepared microtiter plate and added by pipette to each of the 96 wells of the measuring plate. In this case, for a 100% control, i.e. a recovery of the intracellular pH (pHi) by means of the NCBE, a bicarbonate- and sodium-containing buffer solution (mmol/l: 5 HEPES, 93.8 NaCl, 40 NaHCO3, 4.7 KCl, 1.25 CaCl2, 1.25 MgCl2, 0.97 Na2HPO4, 0.23 NaH2PO4, 5 glucose; pH 7.4) which contained 50 μM HOE 642 was used. For a 0% control, i.e. no pHi recovery at all, a bicarbonate-free, sodium-containing buffer solution (mmol/l: 5 HEPES, 133.8 NaCl, 4.7 KCl, 1.25 CaCl2, 1.25 MgCl2, 0.97 Na2HPO4, 0.23 NaH2PO4, 5 glucose; pH 7.4) to which 50 μM HOE 642 were also added was employed. The compounds according to the invention were added in various concentrations of the sodium- and bicarbonate-containing solution. After addition of the buffer solutions to the dye-loaded acidified cells situated in the measuring plate, the increase in the fluorescence intensity which corresponded to an increase in the pHi was determined in each well of the microtiter plate.
# The kinetics were in this case recorded at 35° C. over a period of 2 minutes. The increase in the fluorescence intensities for different concentrations of the compounds according to the invention was related to the two controls and from this the inhibitory action of the substances was determined.
row,Structure (SMILES),Residual activity % of the NCBE at 10 μM [%]
1,N#CNS(=O)(=O)c1ccccc1-c1ccc(CN(CCc2cccs2)C(=O)Cc2cccs2)cc1 [Example 141],71.1
2,N#CNS(=O)(=O)c1ccccc1-c1ccc(CN(Cc2cccc(Cl)c2Cl)C(=O)Cc2cccs2)cc1 [Example 309],88.9
3,COc1ccccc1C(=O)N(Cc1ccc(-c2ccccc2S(=O)(=O)NC#N)cc1)Cc1cccc(C)c1 [Example 331],37.6
4,COc1ccc(CCN(Cc2ccc(-c3ccccc3S(=O)(=O)NC#N)cc2)C(=O)C(c2ccccc2)c2ccccc2)cc1 [Example 120],81.3
5,N#CNS(=O)(=O)c1ccccc1-c1ccc(CN(Cc2cccc3ccccc23)C(=O)CCS(=O)(=O)c2ccccc2)cc1 [Example 280],63.3
6,Cc1ccc(CN(Cc2ccc(-c3ccccc3S(=O)(=O)NC#N)cc2)C(=O)c2ccccc2F)cc1 [Example 95],74.7
7,N#CNS(=O)(=O)c1ccccc1-c1ccc(CN(Cc2ccccc2Cl)C(=O)C(c2ccccc2)c2ccccc2)cc1 [Example 111],80.5
8,CC(=O)N(Cc1ccc(F)cc1)Cc1ccc(-c2ccccc2S(=O)(=O)NC#N)cc1 [Example 185],85.0
9,C[C@H](c1ccccc1)N(Cc1ccc(-c2ccccc2S(=O)(=O)NC#N)cc1)C(=O)Cc1cccs1 [Example 133],40.9
10,CCN(Cc1ccc(-c2ccccc2S(=O)(=O)NC#N)cc1)C(=O)CCCc1cccs1 [Example 191],39.3
11,COc1ccc(CC(=O)N(CCc2cccs2)Cc2ccc(-c3ccccc3S(=O)(=O)NC#N)cc2)cc1 [Example 172],89.7
12,COc1cc(C(=O)N(Cc2ccc(Cl)cc2)Cc2ccc(-c3ccccc3S(=O)(=O)NC#N)cc2)cc(OC)c1OC [Example 52],59.9
13,Cc1cccc(CN(Cc2ccc(-c3ccccc3S(=O)(=O)NC#N)cc2)C(=O)CC2CCCCC2)c1 [Example 351],27.2
14,CC(C)NC(=O)N(Cc1ccc(-c2ccccc2S(=O)(=O)NC#N)cc1)Cc1cccc(Cl)c1 [Example 306],90.2
15,N#CNS(=O)(=O)c1ccccc1-c1ccc(CN(Cc2ccc(C(F)(F)F)cc2)C(=O)c2cc3ccccc3s2)cc1 [Example 79],61.7
16,COc1ccccc1C(=O)N(CC=C(C)CCC=C(C)C)Cc1ccc(-c2ccccc2S(=O)(=O)NC#N)cc1 [Example 333],22.3
17,N#CNS(=O)(=O)c1ccccc1-c1ccc(CN(Cc2ccccc2Cl)C(=O)c2ccccc2F)cc1 [Example 91],62.7
18,CC(C)CN(Cc1ccc(-c2ccccc2S(=O)(=O)NC#N)cc1)C(=O)c1cccs1 [Example 82],99.8
19,COC(=O)C(Cc1ccccc1)N(Cc1ccc(-c2ccccc2S(=O)(=O)NC#N)cc1)C(=O)Cc1c[nH]c2ccccc12 (centres unmarked) [Example 209],56.2
20,N#CNS(=O)(=O)c1ccccc1-c1ccc(CN(Cc2ccccc2)C(=O)Cc2ccccc2[N+](=O)[O-])cc1 [Example 243],99.9
21,N#CNS(=O)(=O)c1ccccc1-c1ccc(CN(Cc2ccco2)C(=O)Cc2ccc(Cl)cc2)cc1 [Example 148],45.6
22,COc1ccc(CCN(Cc2ccc(-c3ccccc3S(=O)(=O)NC#N)cc2)C(=O)c2ccccc2F)cc1 [Example 100],94.1

row,Structure (SMILES),Residual activity % of the NCBE at 10 μM [%]
1,COc1ccc(CN(Cc2ccc(-c3ccccc3S(=O)(=O)NC#N)cc2)C(=O)C2CCCCC2)cc1 [Example 15],67.6
2,N#CNS(=O)(=O)c1ccccc1-c1ccc(CN(Cc2ccc3c(c2)OCO3)C(=O)c2cccs2)cc1 [Example 87],54.8
3,CN(Cc1ccc(-c2ccccc2S(=O)(=O)NC#N)cc1)C(=O)C(=O)c1cccs1 [Example 198],51.1
4,N#CNS(=O)(=O)c1ccccc1-c1ccc(CN(Cc2ccccc2F)C(=O)CC2CCCCC2)cc1 [Example 356],47.4
5,N#CNS(=O)(=O)c1ccccc1-c1ccc(CN(CC2CCCCC2)C(=O)C(NC(=O)OCc2ccccc2)c2ccccc2)cc1 (centres unmarked) [Example 265],68.9
6,N#CNS(=O)(=O)c1ccccc1-c1ccc(CN(C(=O)Cc2cccs2)C2CCc3ccccc32)cc1 (centres unmarked) [Example 314],14.4
7,C[C@H](c1ccccc1)N(Cc1ccc(-c2ccccc2S(=O)(=O)NC#N)cc1)C(=O)C(c1ccccc1)c1ccccc1 [Example 118],95.3
8,N#CNS(=O)(=O)c1ccccc1-c1ccc(CN(CCCc2ccccc2)C(=O)CCCCc2cccs2)cc1 [Example 218],87.1
9,N#CNS(=O)(=O)c1ccccc1-c1ccc(CN(Cc2ccccc2Cl)C(=O)Cc2ccccc2)cc1 [Example 121],72.1
10,COc1cccc(CN(Cc2ccc(-c3ccccc3S(=O)(=O)NC#N)cc2)C(=O)NCc2ccccc2)c1 [Example 303],65.8
11,N#CNS(=O)(=O)c1ccccc1-c1ccc(CN(CCO)C(=O)C2CCCCC2)cc1 [Example 14],88.7
12,COCCN(Cc1ccc(-c2ccccc2S(=O)(=O)NC#N)cc1)C(=O)Cc1csc2ccccc12 [Example 211],50.6
13,COC(=O)C(c1ccccc1)N(Cc1ccc(-c2ccccc2S(=O)(=O)NC#N)cc1)C(=O)Cc1ccccc1Br (centres unmarked) [Example 274],73.6
14,N#CNS(=O)(=O)c1ccccc1-c1ccc(CN(Cc2ccccc2)C(=O)NCc2ccccc2)cc1 [Example 299],48.6
15,N#CNS(=O)(=O)c1ccccc1-c1ccc(CN(CCc2cccs2)C(=O)Cc2ccc(Cl)cc2)cc1 [Example 150],44.7
16,COc1ccccc1C(=O)N(Cc1ccc(-c2ccccc2S(=O)(=O)NC#N)cc1)CC1CCCO1 (centres unmarked) [Example 338],50.7
17,N#CNS(=O)(=O)c1ccccc1-c1ccc(CN(Cc2ccccc2)C(=O)Cc2cccs2)cc1 [Example 25],16.6
18,N#CNS(=O)(=O)c1ccccc1-c1ccc(CN(CC2CCCCC2)C(=O)Cc2ccccc2[N+](=O)[O-])cc1 [Example 257],54.6
19,N#CNS(=O)(=O)c1ccccc1-c1ccc(CN(Cc2cccs2)C(=O)NC2CCCCC2)cc1 [Example 296],31.7
20,C#CCN(Cc1ccc(-c2ccccc2S(=O)(=O)NC#N)cc1)C(=O)C(=O)c1ccco1 [Example 248],66.6
21,N#CNS(=O)(=O)c1ccccc1-c1ccc(CN(C(=O)Cc2csc3ccccc23)C2CC2)cc1 [Example 213],45.0

# Same assay, conditions: 10 μM compound; human endothelial cells (ECV-304); related to 100% and 0% pHi recovery controls
row,Structure (SMILES),Residual activity of the NCBE at 10 μM [%]
1,"CS(=O)(=O)c1cc(-c2ccccc2S(=O)(=O)NC#N)ccc1CN(Cc1ccccc1)C(=O)Cc1cccs1 [Example 555, 4′-{[Benzyl-(2-thiophen-2-ylacetyl)amino]methyl}-3′-methylsulfonyl-biphenyl-2-sulfonylcyanamide]",31

# Same assay, conditions: compound at 10 μM; sub-table with R7 substituent
row,Structure (SMILES),Residual activity % of the NCBE at 10 μM [%]
1,Cc1ccc(-c2ccc(CN(Cc3cccc(Cl)c3Cl)C(=O)Cc3ccc(Cl)cc3)cc2)c(S(=O)(=O)NC#N)c1 [Example 536],76.3
2,Cc1ccc(-c2ccc(CN(Cc3ccccc3)C(=O)Cc3ccsc3)cc2)c(S(=O)(=O)NC#N)c1 [Example 537],54.4
3,Cc1ccc(-c2ccc(CN(Cc3ccccc3)C(=O)Cc3ccc(Cl)cc3)cc2)c(S(=O)(=O)NC#N)c1 [Example 529],89.4
